The source of these data is publication PMC4994518 (Journal of medicinal chemistry, 2010).

A value given as a limit tells only on which side of the number the result lay.

For test [1], the target named is Human recombinant PDE 5A (Homo sapiens, UniProt O76074). Briefly: Phosphodiesterase assay. The conditions noted are these: for % PDE 5 inhibition at 10 μM: recombinant human PDE5, 10 μM, duplicate values. It counts as biochemical.
Test [2] has as its system MDA-MB-231 breast tumor cell line. Briefly: Growth inhibition of MDA-MB-231 breast tumor cell line. It counts as cell-based, human. The conditions noted are these: for inhibition at 10 µM: Homo sapiens, MDA-MB-231, read-out: % growth inhibition at 10 μM.

With `CCN1C(=O)[C@@H]2Cc3c([nH]c4ccccc34)[C@@H](c3ccc(Cl)cc3Cl)N2C1=O` [Compound 14, (5R,11aS) 5-(2,4-Dichlorophenyl)-2-ethyl-5,6,11,11a-tetrahydro-1H-imidazo [1′,5′:1,6] pyrido[3,4-b]indole-1,3(2H)-dione], the selectivity index in test [1] (IC50 of PDE11A (cGMP)/IC50 of PDE5A (cGMP)) was > 200.

Turning to `COC(=O)[C@@H]1Cc2c([nH]c3ccccc23)[C@H](c2c(Cl)cccc2Cl)N1` [Compound 10, (1S,3S)Methyl-1-(2,6-dichlorophenyl)-2,3,4,9-tetrahydro-1H-β-carboline-3-carboxylate], in test [1], the “% PDE 5 inhibition at 10 μM” value was “inactive”.

Turning to `COC(=O)[C@H]1Cc2c([nH]c3ccccc23)[C@H](c2ccc(Cl)c(Cl)c2)N1` [Compound 6, (1S,3R)Methyl-1-(3,4-dichlorophenyl)-2,3,4,9-tetrahydro-1H-β-carboline-3-carboxylate], the IC50 (as a rule, the concentration needed to halve the response being measured) in test [2] (read-out: growth inhibition IC50 (μM) and CI at p < 0.05, MDA-MB-231, at least 8 concentrations, quadruple replicates, CI in brackets) is < 10 µM.

Turning to `COC(=O)[C@H]1Cc2c([nH]c3ccccc23)[C@H](c2ccc(Cl)cc2Cl)N1C(=O)CCl` [Compound 32, (1S,3R)Methyl 1-(2,4-Dichlorophenyl)-2-(2-chloroacetyl)-2,3,4,9-tetrahydro-1H-β-carboline-3-carboxylate], the inhibition (commonly the share of the control response that was lost under treatment) at 10 µM in test [2] is 98%. Further, the “growth inhibitory potency relative to 31” value in test [2] (MDA-MB-231) is recorded as ~10 times.

Turning to `COC(=O)[C@H]1Cc2c([nH]c3ccccc23)[C@@H](c2c(Cl)cccc2Cl)N1` [Compound 9, (1R,3R)Methyl-1-(2,6-dichlorophenyl)-2,3,4,9-tetrahydro-1H-β-carboline-3 carboxylate], the “% PDE 5 inhibition at 10 μM” value in test [1] is “inactive”.

Regarding `COC(=O)[C@H]1Cc2c([nH]c3ccccc23)[C@@H](c2ccc(Cl)cc2Cl)N1C(=O)CCl` [Compound 31, (1R,3R)Methyl 1-(2,4-Dichlorophenyl)-2-(2-chloroacetyl)-2,3,4,9-tetrahydro-1H-β-carboline-3-carboxylate], the inhibition at 10 µM in test [2] is 98%.
